Assay results reported in patent US9346776B2, “Fused heterocyclic compound” (Takeda Pharmaceutical Company Limited, priority 2014, dated 2016).
One block for each compound: values may come before it.

How the values were obtained:
[1] = target: T1, Human recombinant enteropeptidase (Homo sapiens, UniProt P98073); test: Human enteropeptidase inhibitory activity; assay type: biochemical; conditions: 3.3 uM compound; fluorescence 2 hours after start of reaction; read-out: Inhibition rate at 3.3 uM (%)
T1 construct: purchased ITSI-Biosciences, LLC #REN-260
T1 sequence (P98073 whole entry): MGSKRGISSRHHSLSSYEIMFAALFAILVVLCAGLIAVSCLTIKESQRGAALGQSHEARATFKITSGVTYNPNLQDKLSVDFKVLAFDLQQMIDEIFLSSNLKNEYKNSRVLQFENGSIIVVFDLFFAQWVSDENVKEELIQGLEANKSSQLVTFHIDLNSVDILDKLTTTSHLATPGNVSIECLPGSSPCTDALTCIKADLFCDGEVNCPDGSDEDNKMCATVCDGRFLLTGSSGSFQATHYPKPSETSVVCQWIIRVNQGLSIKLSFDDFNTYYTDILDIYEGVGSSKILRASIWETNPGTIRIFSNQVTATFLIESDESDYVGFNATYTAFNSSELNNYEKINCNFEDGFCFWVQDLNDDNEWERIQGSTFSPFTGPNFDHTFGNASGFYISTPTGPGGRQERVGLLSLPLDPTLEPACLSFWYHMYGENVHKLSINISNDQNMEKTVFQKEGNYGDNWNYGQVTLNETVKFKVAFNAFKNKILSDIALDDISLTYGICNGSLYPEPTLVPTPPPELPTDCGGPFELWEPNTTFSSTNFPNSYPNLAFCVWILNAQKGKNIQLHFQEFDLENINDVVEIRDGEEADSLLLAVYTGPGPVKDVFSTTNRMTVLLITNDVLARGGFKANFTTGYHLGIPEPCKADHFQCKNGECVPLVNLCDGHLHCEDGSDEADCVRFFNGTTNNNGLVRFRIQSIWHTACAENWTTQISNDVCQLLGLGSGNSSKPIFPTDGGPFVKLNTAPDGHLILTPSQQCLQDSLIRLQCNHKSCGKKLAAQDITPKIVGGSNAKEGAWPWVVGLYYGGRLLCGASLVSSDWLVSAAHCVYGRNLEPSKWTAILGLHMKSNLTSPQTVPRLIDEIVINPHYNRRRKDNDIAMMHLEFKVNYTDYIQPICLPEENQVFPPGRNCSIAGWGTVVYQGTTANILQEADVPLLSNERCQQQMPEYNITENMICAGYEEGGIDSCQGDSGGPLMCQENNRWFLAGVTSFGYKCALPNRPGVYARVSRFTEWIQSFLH
Method: Test Example 1 Human enteropeptidase inhibitory activity Human recombinant enteropeptidase (#REN-260, ITSI-Biosciences, LLC) was diluted with an assay buffer (50 mM Tricine (pH 8.0), 0.01 (w/v) % Tween 20, 10 mM CaCl2) to prepare a 24 mU/mL enzyme solution. Subsequently, 5FAM-Abu-Gly-Asp-Asp-Asp-Lys-Ile-Val-Gly-Gly-Lys(CPQ2)-Lys-Lys-NH2 (purity: 97.2%, CPC Scientific, Inc.) produced according to a synthesis method known per se was diluted with an assay buffer to prepare a 2.1 uM (“u” represents “micro”) substrate solution. Each test compound was dissolved in DMSO to prepare a 1 mM solution, which was then diluted 100-fold with an assay buffer to prepare a compound solution. The compound solution (5 uL/well) and the substrate solution (5 uL/well) were added to a 384-well black plate (#784076, Greiner Bio-One) and mixed. Then, the enzyme solution (5 uL/well) was added to the plate and mixed to start reaction. The fluorescence intensity was measured at an excitation wavelength of 485 nm and a fluorescence wavelength of 535 nm using a fluorescence plate reader EnVision (PerkinElmer Inc.). Also, the same reaction as above was performed except that the test compound was not added (test compound non-supplemented group). In addition, the same reaction as above was performed except that neither the test compound nor the enzyme was added (control group). The inhibition rate was calculated from the fluorescence intensity 2 hours after the start of the reaction according to the following equation: Inhibition rate (%)=(1−(Fluorescence intensity of the test compound supplemented group−Fluorescence intensity of the control group)/(Fluorescence intensity of the test compound non-supplemented group−Fluorescence intensity of the control group))×100

[2] = test system: high fat diet-fed (HFD-fed) mouse; test: Test on elevation of protein concentration in feces using HFD-fed mouse; assay type: in vivo; conditions: 10 mg/kg oral, feces recovered at day 1, mean ± SD, 5 mice
Method: Test Example 2 Test on elevation of protein concentration in feces using HFD-fed mouse A 0.5% methylcellulose suspension (test compound administered group, 5 mice per group) containing each test compound (10 mg/kg) or a 0.5% methylcellulose suspension (test compound non-administered group (vehicle), 5 mice per group) was orally administered to each high fat diet-fed (HFD-fed) mouse (D12079B diet, male, 18 weeks old), and the whole feces were recovered at day 1 of administration. The dry feces were dissolved in a 0.5 N aqueous sodium hydroxide solution. After centrifugation at 12,000 rpm, a protein concentration was quantified (Lowry method) using the supernatant to calculate a protein concentration (mg/g feces) in 1 g of feces. The mean and standard deviation of each group are shown below.

[3] = test system: diet-induced obesity (DIO) mouse; test: Test on antiobesity action using DIO mouse; assay type: in vivo; conditions: mean ± SD; for Body weight(g) At start of administration: baseline
Method: Test Example 3 Test on antiobesity action using DIO mouse A 0.5% methylcellulose suspension (test compound administered group, 5 or 6 mice per group) containing each test compound (20 or 60 mg/kg) or a 0.5% methylcellulose suspension (test compound non-administered group (vehicle), 6 mice per group) was orally administered to each diet-induced obesity (DIO) mouse (D12079B diet, male, 46 weeks old) once a day for 4 weeks. The means of body weights and standard deviations at the start of administration and after 4-week continuous administration are shown below.

Male ob/ob mice = test: Hypoglycemic action on diabetes mellitus animal model (2-week continuous administration); assay type: in vivo, mouse; conditions: feed containing 0.03% compound for 2 weeks, mean ± SD
From the text: Test Example 4 Hypoglycemic action on diabetes mellitus animal model (2-week continuous administration) Male ob/ob mice (6 weeks old) were used to prepare two groups each involving 5 individuals. One of the groups was fed as a control with feed free from a compound for 2 weeks, while the other group to receive compound treatment was fed with feed containing a compound at a concentration of 0.03% for 2 weeks. After 2 weeks, blood was collected from the tail vein of each mouse, and a diabetes mellitus-ameliorating action brought about by the compound treatment was evaluated. Blood glucose levels were measured using Hitachi automatic analyzer model 7180 (Hitachi, Ltd.), and glycated hemoglobin levels were measured using Tosoh automatic glycohemoglobin analyzer HLC-723G8 (Tosoh Corp.). The blood glucose and glycated hemoglobin levels of each group after the 2-week administration are indicated by mean±standard deviation in Table 6.

[4] = 20 mg/kg oral once a day for 4 weeks
[5] = 60 mg/kg oral once a day for 4 weeks

Structure (SMILES): N=C(N)Nc1ccc(C(=O)Oc2cc(F)c3c(c2)OCC3CC(=O)N[C@@H](CC(=O)O)C(=O)O)cc1 (stereo partly drawn) [Example 10, N-((6-((4-Carbamimidamidobenzoyl)oxy)-4-fluoro-2,3-dihydro-1-benzofuran-3-yl)acetyl)-L-aspartic acid]
- inhibition at 3.3 µM [1]: 100%

Structure (SMILES): N=C(N)Nc1ccc(C(=O)Oc2ccc3c(c2)OC[C@@H]3CC(=O)N(CC(=O)O)CC(=O)O)cc1 [Example 8, 2,2′-((((3R)-6-((4-carbamimidamidobenzoyl)oxy)-2,3-dihydro-1-benzofuran-3-yl)acetyl)imino)diacetic acid]
- inhibition at 3.3 µM [1]: 100%

Structure (SMILES): N=C(N)Nc1ccc(C(=O)Oc2ccc3c(c2)OC[C@@H]3CC(=O)N(CCC(=O)O)CCC(=O)O)cc1 [Example 9, 3,3′-((((3R)-6-((4-carbamimidamidobenzoyl)oxy)-2,3-dihydro-1-benzofuran-3-yl)acetyl)imino)dipropanic acid]
- inhibition at 3.3 µM [1]: 100%

Structure (SMILES): Cc1c(OC(=O)c2ccc(NC(=N)N)cc2)ccc2c1OCC2CC(=O)N[C@@H](CC(=O)O)C(=O)O (stereo partly drawn) [Example 11, N-((6-((4-carbamimidamidobenzoyl)oxy)-7-methyl-2,3-dihydro-1-benzofuran-3-yl)acetyl)-L-aspartic acid]
- inhibition at 3.3 µM [1]: 98%

Structure (SMILES): Cc1cc(OC(=O)c2ccc(NC(=N)N)cc2)cc2c1C(CC(=O)N[C@@H](CC(=O)O)C(=O)O)CO2 (stereo partly drawn) [Example 3, N-((6-((4-Carbamimidamidobenzoyl)oxy)-4-methyl-2,3-dihydro-1-benzofuran-3-yl)acetyl)-L-aspartic acid]
- inhibition at 3.3 µM [1]: 100%

Structure (SMILES): N=C(N)Nc1ccc(C(=O)Oc2ccc3c(c2)OC[C@H]3CC(=O)N[C@@H](CC(=O)O)C(=O)O)cc1 [Example 12, N-(((3S)-6-((4-Carbamimidamidobenzoyl)oxy)-2,3-dihydro-1-benzofuran-3-yl)acetyl)-L-aspartic acid hydrate]
- Blood glucose level (Male ob/ob mice): 144.2 ± 19.5 mg/dL
- Glycated hemoglobin level (%) (Male ob/ob mice): 3.5 ± 0.1%

Continued, in another order:

- inhibition at 3.3 µM [1]: 101%
Structure (SMILES): N=C(N)Nc1ccc(C(=O)Oc2ccc3c(c2)OC[C@@H]3CC(=O)N[C@@H](CCC(=O)O)C(=O)O)cc1 [Example 6, N-(((3R)-6-((4-carbamimidamidobenzoyl)oxy)-2,3-dihydro-1-benzofuran-3-yl)acetyl)-L-glutamic acid]

- inhibition at 3.3 µM [1]: 101%
Structure (SMILES): N=C(N)Nc1ccc(C(=O)Oc2ccc3c(c2)OC[C@H]3CC(=O)N[C@@H](CCC(=O)O)C(=O)O)cc1 [Example 7]

- inhibition at 3.3 µM [1]: 101%
Structure (SMILES): N=C(N)Nc1ccc(C(=O)Oc2ccc3c(c2)OC[C@@H]3CC(=O)N[C@@H](CC(=O)O)C(=O)O)cc1 [Example 2, N-(((3R)-6-((4-Carbamimidamidobenzoyl)oxy)-2,3-dihydro-1-benzofuran-3-yl)acetyl)-L-aspartic acid]
- Protein concentration in feces (mg/g feces) [2]: 149.8 ± 24.4 mg/g feces
- Body weight(g) After 4-week continous administration [3, 4]: 46.0 ± 2.8 g
- Body weight(g) At start of administration ([3]; 20 mg/kg oral once a day): 49.6 ± 2.6 g
- Body weight(g) After 4-week continous administration [3, 5]: 44.4 ± 4.5 g
- Body weight(g) At start of administration ([3]; 60 mg/kg oral once a day): 49.8 ± 2.8 g

- inhibition at 3.3 µM [1]: 100%
Structure (SMILES): N=C(N)Nc1ccc(C(=O)Oc2ccc3c(c2)OC[C@H]3CC(=O)N[C@H](CC(=O)O)C(=O)O)cc1 [Example 4, N-(((3S)-6-((4-carbamimidamidobenzoyl)oxy)-2,3-dihydro-1-benzofuran-3-yl)acetyl)-D-aspartic acid]

- inhibition at 3.3 µM [1]: 101%
Structure (SMILES): N=C(N)Nc1ccc(C(=O)Oc2ccc3c(c2)OC[C@H]3CC(=O)N[C@@H](CC(=O)O)C(=O)O)cc1 [Example 1, N-(((3S)-6-((4-Carbamimidamidobenzoyl)oxy)-2,3-dihydro-1-benzofuran-3-yl)acetyl)-L-aspartic acid]
- Protein concentration in feces (mg/g feces) [2]: 177.6 ± 35.2 mg/g feces
- Body weight(g) After 4-week continous administration [3, 4]: 43.8 ± 1.7 g
- Body weight(g) At start of administration ([3]; 20 mg/kg oral once a day): 48.3 ± 2.0 g
- Body weight(g) After 4-week continous administration [3, 5]: 41.7 ± 2.8 g
- Body weight(g) At start of administration ([3]; 60 mg/kg oral once a day): 49.5 ± 2.2 g

- inhibition at 3.3 µM [1]: 101%
Structure (SMILES): N=C(N)Nc1ccc(C(=O)Oc2ccc3c(c2)OC[C@@H]3CC(=O)N[C@H](CC(=O)O)C(=O)O)cc1 [Example 5, N-(((3R)-6-((4-carbamimidamidobenzoyl)oxy)-2,3-dihydro-1-benzofuran-3-yl)acetyl)-D-aspartic acid]
